Experimental data taken from patent publication US20220169672A1, “COMPOUNDS FOR TARGETED THERAPIES OF CASTRATION RESISTANT PROSTATE CANCER” (Purdue Research Foundation, priority 2019, published 2022).
Read-outs that look alike come from different tables or passages of the source.

What was measured:
[1] = test system: LNCaP cells; test: Cell proliferation / growth inhibition in LNCaP cells; assay type: cell-based; settings: Homo sapiens, read-out: growth inhibition IC50
Method: All these cells were and maintained at 37° C. with 5% CO2 atmosphere in a humidified incubator following American Type Culture Collection (ATCC) protocol. LNCaP cells were grown in RPMI-1640 (Gibco) supplemented with 10% FBS (Atlanta Biologics), 20 mM HEPES and 1% penicillin/streptomycin (Invitrogen). […] For experiments, cells were used from 3 to 12 passages from thawing.

[2] = test system: C4-2 cells; test: Cell proliferation / growth inhibition in CRPC C4-2 cells; assay type: cell-based, human
Method: (§1) To identify initial lead(s), we first tested all ten drugs in vitro in human prostate cancer LNCaP and CRPC C4-2 cells to see their growth inhibition effect.
We assessed anti-cancer activity of the synthetic molecules in prostate cancer cell lines as well as toxicity of the active molecules in normal human cell line.
(§2) The LNCaP, C4-2 & RWPE-1 cell lines were provided by Professor Timothy Ratliff (Purdue University Center for Cancer Research, USA). All these cells were and maintained at 37° C. with 5% CO2 atmosphere in a humidified incubator following American Type Culture Collection (ATCC) protocol. LNCaP cells were grown in RPMI-1640 (Gibco) supplemented with 10% FBS (Atlanta Biologics), 20 mM HEPES and 1% penicillin/streptomycin (Invitrogen). C4-2 cells were grown in 4:1 DMEM/F12-K medium (Gibco) supplemented with 10% FBS (Atlanta Biologics), 1% penicillin/streptomycin (Invitrogen), 3 mg/mL sodium bicarbonate, 5 μg/mL insulin, 1.36 ng/mL triiodothyronine, 5 μg/mL transferrin, 0.25 μg/mL biotin and 25 μg/mL adenine. For normal growth, RWPE-1 cells were maintained in Keratinocyte Serum Free Medium (K-SFM) (Invitrogen) supplemented with 0.05 mg/mL bovine pituitary extract (BPE) and 5 ng/mL epidermal growth factor (EGF). […] For experiments, cells were used from 3 to 12 passages from thawing.
(§3) The cell proliferation experiment was carried out by the ‘Cell Titer-Blue Cell Viability Assay,’ In this assay, approximately 5,000 cells/well were seeded in 100 μL growth media in poly-L-lysine coated 96-well plates. Next day, the cells were treated with additional 100 μL of various concentrations of the test compounds or DMSO-growth media as untreated control for 6 days in a humidified incubator at 37° C. and 5% CO2 atmosphere. 10 μL ‘Cell Titer-Blue Reagent’ was added directly to each well after 6 days and the plates were incubated for 3 h at 37° C. to allow cells to convert resazurin to resorufin, and the fluorescent signal was measured at 590 nm using a multiplate ELISA reader (Bio-Tek Synergy HT plate reader, Bio-Tek, Winooski, Vt.). The percentage of viable cells in a compound-treated sample was calculated by considering the absorbance of the DMSO-growth media treated sample as 100%. Data was analysed and IC50 value was calculated using GraphPad Prism Software. All experimental points were done in triplicate and experiments were repeated at least thrice.

[3] = in vitro; settings: human
Method: as §1, §2, §3
(§4) The cell viability assay was performed using a standard methyl thiazolyldiphenyl tetrazolium bromide (MTT) assay. In this assay, approximately 5,000 cells/well were seeded in 100 μL growth media in poly-L-lysine coated 96-well plates. After 1 day of plating, the cells were treated with additional 100 μL of various concentrations of the test compounds or DMSO-growth media as untreated control for 3 days more in a humidified incubator at 37° C. and 5% CO2 atmosphere. After 3 days, the culture medium was replaced with 100 μL of MTT solution (using 1 mg/ml stock in growth media) per well and further incubated at 37° C. for 3-4 h. To dissolve the formazan crystals formed in each well by mitochondrial reductase from live cells, 100 μL DMSO was added in each well and shaked for 30 min at RT using an orbital shaker. The absorbance of each well was measured at 570 nm using a multiplate ELISA reader (Bio-Tek Synergy HT plate reader, Bio-Tek, Winooski, Vt.). The percentage of viable cells in a compound-treated sample was calculated by considering the absorbance of the DMSO-growth media treated sample as 100%. All experimental points were done in triplicate and experiments were repeated at least thrice.

[4] = test system: LNCaP cells; test: In vitro scratch assay, LNCaP cell migration; assay type: cell-based, human; settings: no treatment 4.8 μm/h
Description: (§5) We evaluated effects of the active leads on the cancer cell migration—as most often, prostate cancer cell metastasizes to bone leading to the advanced prostate cancer. We performed the well developed in vitro scratch assay to measure both LNCaP and C4-2 cell's migration in presence of the treatments of all these active synthetic compounds. We calculated the migration speed based on the distance travelled/h. The LNCaP cells with no treatment migrated at a speed of 4.8 μm/h, whereas, treatment with 1, 2, 3 and 4 led to a slower rate (2.2, 3.5, 2.6 and 3.7 μm/h respectively) of migration; almost half of the migration speed as compared to that of the non-treated cells. The C4-2 cells with no treatment migrated at a speed of 6.5 μm/h whereas, treatment with 1, 2, 3 and 4 led to a slower rate (2.4, 3.3, 3.9 and 2.5 μm/h respectively) of migration (FIGS. 3D-3E). Since migration is the first step towards invasion and metastasis of cancer cells 1, 2, 3 and 4 might as well interfere with the metastasis process and lead 1 was found as the most efficient among these based on the migration speed rate in both the cells.

[5] = test system: C4-2 cells; test: In vitro scratch assay, C4-2 cell migration; assay type: cell-based, human; settings: no treatment 6.5 μm/h
Description: as §5

[6] = test system: RWPE-1 cells; test: Cytotoxicity in normal prostatic epithelial RWPE-1 cells; settings: read-out: cytotoxicity IC50; RWPE-1 normal cells
Method: as §1, §2, §3, §4

[7] = biological target: T1, androgen receptor (AR) (Homo sapiens, UniProt P10275, T878A); test: Western blot of AR expression in C4-2 cell lysates; assay type: cell-based; settings: C4-2 cells, 1 μM, 24 h, compared to vehicle and other treatments including ABI
T1 construct: we performed western blot analysis of LNCaP and C4-2 cells' lysates after treated with the indicated drugs/compounds; endogenous in cells; host or cells: C4-2
T1 sequence (P10275 whole entry T878A): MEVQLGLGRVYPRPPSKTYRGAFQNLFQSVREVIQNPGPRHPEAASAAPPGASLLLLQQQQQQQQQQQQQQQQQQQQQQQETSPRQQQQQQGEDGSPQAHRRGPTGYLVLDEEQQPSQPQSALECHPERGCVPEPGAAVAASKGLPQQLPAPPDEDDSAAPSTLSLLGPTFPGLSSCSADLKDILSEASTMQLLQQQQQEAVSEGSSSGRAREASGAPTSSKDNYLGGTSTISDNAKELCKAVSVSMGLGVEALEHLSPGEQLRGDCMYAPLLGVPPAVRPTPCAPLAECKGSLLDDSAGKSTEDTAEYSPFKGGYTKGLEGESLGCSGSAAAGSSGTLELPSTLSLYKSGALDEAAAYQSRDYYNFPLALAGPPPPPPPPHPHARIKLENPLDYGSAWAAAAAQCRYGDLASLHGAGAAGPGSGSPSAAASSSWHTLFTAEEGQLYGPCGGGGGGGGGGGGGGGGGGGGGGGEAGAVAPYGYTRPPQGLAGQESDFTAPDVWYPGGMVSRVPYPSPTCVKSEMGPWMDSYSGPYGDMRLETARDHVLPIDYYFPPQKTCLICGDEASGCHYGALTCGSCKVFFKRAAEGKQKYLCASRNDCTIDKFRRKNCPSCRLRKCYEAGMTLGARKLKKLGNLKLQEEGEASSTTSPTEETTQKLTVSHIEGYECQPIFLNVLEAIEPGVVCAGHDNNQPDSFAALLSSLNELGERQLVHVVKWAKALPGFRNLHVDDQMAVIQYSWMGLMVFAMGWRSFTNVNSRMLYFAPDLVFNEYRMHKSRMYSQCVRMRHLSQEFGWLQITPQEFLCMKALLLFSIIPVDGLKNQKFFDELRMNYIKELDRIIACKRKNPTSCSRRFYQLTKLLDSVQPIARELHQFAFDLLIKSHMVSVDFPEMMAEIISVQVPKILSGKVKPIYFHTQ
Method: First, 0.5×10^6 cells/well were seeded in 6-well plate coated with 0.01% poly-L-lysine. Next day, cells were treated with 1 μM concentrations of drugs/compounds or 0.01% DMSO-growth media as vehicle control and the treatment was continued for 24 h in a humidified incubator at 37° C. and 5% CO2 atmosphere. Following treatment, cells were washed with cold PBS and lysed in TBSN buffer (20 mmol/L Tris, pH 8.0, 150 mmol/L NaCl, 1.5 mmol/L EDTA, 5 mmol/L EGTA, 0.5% Nonidet P-40, and 0.5 mmol/L Na3VO4) supplemented with 1× protease inhibitor cocktail tablets to obtain cellular lysates. The protein concentration of the whole cell lysate was quantified by Pierce BCA Protein Assay (Thermo Scientific). The lysate was run on 10% SDS-PAGE gel (40 μg of protein per lane) and β-actin (clone 8H10D10, Cell Signaling Technology) was used as a loading control. Proteins were transferred onto PVDF membrane and the nonspecific binding was blocked using 5% milk in PBS-T (0.05% Tween-20 in PBS buffer) for 1 h. […] Protein expression was normalized to β-actin and densitometry was calculated using ImageJ Software.

[8] = mouse liver microsomes, 3 μM, 37° C., 60 min
Method: In this assay, the lead compounds were incubated with the respective microsomes at 37° C. and the incubated mixture was analyzed by LC-MS/MS to quantify the remaining parent molecule.
All the test compounds were incubated in duplicate at 3 μM concentration with mouse and human liver microsomes at 37° C. The reaction mixture contained microsomal enzyme in 100 mM potassium phosphate buffer of pH 7.4. Warfarin and verapamil were used as negative and positive control in this assay. After 0 min and 60 min incubation, aliquots were removed from each experimental and control reaction and mixed with an equal volume of ice-cold Stop Solution (0.3% acetic acid in acetonitrile). The samples were centrifuged to remove precipitated protein, and the supernatants were analyzed by LC-MS/MS to quantify the remaining parent molecule. Data represents % remaining as compared to the time zero concentration as 100%.

[9] = test system: LuCaP35CR xenografts; test: LuCaP35CR patient derived xenograft (PDX) mice model
[10] = Homo sapiens, C4-2, read-out: growth inhibition / proliferation IC50
[11] = Homo sapiens, C4-2 cells, read-out: growth inhibition / proliferation IC50
[12] = C4-2 cells, read-out: growth inhibition / proliferation IC50

Compound | IC50 [3] [nM] | IC50 [2, 11] [nM] | migration speed [4] [μm/h] | migration speed [5] [μm/h] | IC50 [2, 12] [nM] | IC50 [6] [nM] | also measured
C#C[C@]1(O)CC[C@H]2[C@@H]3[C@H](C)CC4=C(CCC(=O)C4)[C@H]3CC[C@@]21C [TIB, tibolone, reference compound] | 23300 | – | – | – | – | – | IC50 ([1]; LNCaP): 24.9 nM; IC50 [2, 10]: 3.12 nM
C#C[C@]1(O)CC[C@H]2[C@@H]3CCC4=CC(=O)CC[C@@H]4[C@H]3CC[C@@]21CC [LEV, levonorgestrel, reference compound] | 59700 | 41.8 | – | – | – | – | IC50 ([1]; LNCaP cells): 181 nM
C#C[C@@]1(O)CC[C@@H]2[C@H]3[C@@H](CC[C@@]21C)[C@H]1CCC(=NO)C=C1C[C@H]3C [Compound 3] | – | < 100 | 2.6 | 3.9 | – | – | –
C#C[C@]1(O)CC[C@H]2[C@@H]3CCC4=CC(=O)CC[C@@H]4[C@H]3CC[C@@]21C [NOR, norethisterone, reference compound] | 86300 | 7.04 | – | – | – | – | IC50 ([1]; LNCaP cells): 32.5 nM
C#C[C@]1(O)CC[C@H]2[C@@H]3CCC4=CC(=NO)CC[C@@H]4[C@H]3CC[C@@]21C [Compound 4] | – | – | 3.7 | 2.5 | – | – | –
C[C@]12CC[C@H](O)CC1=CC[C@@H]1[C@@H]2CC[C@]2(C)C(c3cccnc3)=CC[C@@H]12 [ABI, abiraterone, reference compound] | – | – | – | – | – | – | IC50 ([3]; RWPE-1 normal prostatic epithelial cells): 7200 nM
C#C[C@@]1(O)CC[C@@H]2[C@H]3[C@@H](CC[C@@]21C)[C@H]1CCC(=O)C=C1C[C@@H]3C [Compound 1] | – | – | 2.2 | 2.4 | 0.72 | 54600 | proliferation IC50 compared to ABI, in words ([2]; C4-2 cells): much less in C4-2 cells than that of ABI; AR degradation (western blot), in words [7]: degraded AR efficiently; metabolic stability compared to ABI [8]: more stable than the current CRPC drug ABI; average body weight ([9]; LuCaP35CR mice, over 16 days): did not change the average body weight; tumor growth ([9]; castrate mice bearing LuCaP35CR xenografts, 10 mg/kg, compared to vehicle): suppressed the tumor growth rapidly
C[C@H]1CC2=CC(=O)CC[C@@H]2[C@@H]2CC[C@@]3(C)[C@H](CC[C@]3(O)C#Cc3ccccc3N)[C@@H]21 [Compound 15] | – | – | – | – | 4.1 | 13500 | –
CC[C@@]1(O)CC[C@@H]2[C@H]3[C@@H](CC[C@@]21C)[C@H]1CCC(=O)CC1C[C@@H]3C (some centres unmarked) [Compound 13] | – | – | – | – | 3.5 | 17800 | –
C#C[C@]1(O)CC[C@H]2[C@@H]3CCC4=CC(=O)CC[C@]4(C)[C@H]3CC[C@@]21C [Compound 2, Ethisterone] | 18300 | – | 3.5 | 3.3 | – | – | IC50 [2, 10]: 11 nM
